Test results reported in PMC2769999 (Biochemistry, 2009).

Target: T1, V331C LacY (lactose permease), MIANS- or DACM-labelled (Escherichia coli, UniProt P02920, E325Q/K319L/V331C)
T1 sequence (P02920 1-417 K319L/E325Q/V331C): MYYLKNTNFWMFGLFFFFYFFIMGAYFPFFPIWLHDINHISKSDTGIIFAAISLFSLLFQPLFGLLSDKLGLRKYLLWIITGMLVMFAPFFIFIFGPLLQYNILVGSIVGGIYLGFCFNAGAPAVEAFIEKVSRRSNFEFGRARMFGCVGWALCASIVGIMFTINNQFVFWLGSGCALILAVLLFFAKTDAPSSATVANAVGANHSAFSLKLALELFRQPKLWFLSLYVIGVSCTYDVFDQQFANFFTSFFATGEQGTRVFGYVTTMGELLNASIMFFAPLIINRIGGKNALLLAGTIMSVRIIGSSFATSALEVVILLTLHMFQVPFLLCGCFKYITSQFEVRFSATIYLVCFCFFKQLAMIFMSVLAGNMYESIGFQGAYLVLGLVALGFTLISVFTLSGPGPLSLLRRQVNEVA
Assay: stopped-flow Trp to NPG FRET, kobs vs NPG
Type: binding

In the case of O=[N+]([O-])c1ccc(O[C@H]2O[C@H](CO)[C@H](O)[C@H](O)[C@H]2O)cc1 [NPG, 4-nitrophenyl α-D-galactopyranoside], the Kd is reported as 8.3 µM.
